Entries after “also recorded” stand apart in the source; their conditions may differ.
Assays:
Format in all cases: cell-based
[1] = tested on: rat liver spheroids; assay: Total protein content of rat liver spheroids after GalN exposure (Bradford); details: 24 hr exposure, vs control
Description: (§1) Liver spheroids were prepared from the liver of male Wistar rats by a two-step collagenase perfusion method described by Seglen P. O. ((1976). Preparation of isolated rat liver cells. Methods Cell. Biol. 13, 29-38) and modified by Lazar, A.; Peshwa, M. V., Wu, F. J., Chi, C. M., Cerra, F. B., and Hu, W. S. (1995). Extended liver-specific functions of procirne hepatocyte spheroids entrapped in collagen gel. In Vitro Cell Biol Anim. 31, 340-346). Viability of the isolated liver cells was determined by tyrpan blue dye exclusion i.e. an aliquot of isolated liver cells was mixed with an equal volume of trypan blue dye (1.0% w/v in isotonic saline) and incubated at room temperature for a minimum period of 5 minutes. Only isolated liver cell preparations with viability above 80% were used to prepare liver spheroids. […]
Spheroids were homogenized in homogenisation buffer containing NaH2PO42H2O, 2 mM; Na2HPO4, 2 mM; EDTA, 0.5 mM; and NaCl, 145 mM. Total protein was assessed according to the method developed by Bradford (1976). […] The protein content was determined by Micro Protein Kit (Sigma, Cat. No. 610-A). […] Absorbance was read on a microplate reader (Multiscan RC, Labsystem) at 595 nm.

[2] = tested on: rat liver spheroids; assay: Albumin synthesis of liver spheroids after GalN exposure (BCG albumin kit, medium); details: 24 hr exposure
Description: as §1, with “spheroids. The cell suspension was diluted with culture medium (hepatocyte medium supplemented with 10% FCS, […] L-glutamine, 2 ng/ml insulin, 100 U/ml penicillin and 100 μg/ml streptomycin sulfate) to give a cell density of 5×10^5 cells/ml. The diluted cell suspension was dispersed into 6-well plates, 3 ml/well.” for “spheroids.”
Albumin concentration in the medium was determined by Albumin Reagent Kit (BCG, Sigma). […] Absorbance was read on a microplate reader (Multiscan RC, Labsystems) at 630 nm.

[3] = tested on: rat liver spheroids; assay: Urea synthesis of liver spheroids after GalN exposure (Urea Nitrogen Kit, medium)
Description: as §1
Urea concentration in the media was determined using a Urea Nitrogen Kit (Cat. 640-A, Sigma). The method was modified in order to be suitable for a 96-well plate format and assays using a microplate reader. […] Total ammonium nitrogen of each sample was determined by adding 25 μl urease solution to each well followed by 10 μl of diluted medium. […] A blue colour developed and the absorbance was read on a microplate reader (Multiscan RC, Labsystems) at 590 nm. Free non-urea nitrogen was determined by adding 25 μl PBS without urease followed by 10 μl medium. […]

[4] = tested on: rat liver spheroids; assay: Glutathione content of liver spheroids after GalN exposure (fluorimetric OPT method); details: 24 hr exposure
Description: as §1, with “spheroids. The cell suspension was diluted with culture medium (hepatocyte medium supplemented with 10% FCS, […] L-glutamine, 2 ng/ml insulin, 100 U/ml penicillin and 100 μg/ml streptomycin sulfate) to give a cell density of 5×10^5 cells/ml.” for “spheroids.”
Glutathione levels in spheroids were determined by the fluorimetric method (Hissin P. J., and Hilf (1976). A fluorimetric method for the determination of oxidised and reduced glutathione in tissues. Anal. Biochem. 74, 214-226). […] Absorbance was read on a fluorimeter at excitation wavelength 350 nm and emission wavelength 420 nm.

[5] = tested on: rat liver spheroids; assay: Lactate dehydrogenase (LDH) leakage of liver spheroids after GalN exposure
Description: (§2) Liver spheroids were prepared from the liver of male Wistar rats by a two-step collagenase perfusion method described by Seglen P. O. ((1976). Preparation of isolated rat liver cells. Methods Cell. Biol. 13, 29-38) and modified by Lazar, A.; Peshwa, M. V., Wu, F. J., Chi, C. M., Cerra, F. B., and Hu, W. S. (1995). Extended liver-specific functions of procirne hepatocyte spheroids entrapped in collagen gel. In Vitro Cell Biol Anim. 31, 340-346). Viability of the isolated liver cells was determined by tyrpan blue dye exclusion i.e. an aliquot of isolated liver cells was mixed with an equal volume of trypan blue dye (1.0% w/v in isotonic saline) and incubated at room temperature for a minimum period of 5 minutes. Only isolated liver cell preparations with viability above 80% were used to prepare liver spheroids. The cell suspension was diluted with culture medium (hepatocyte medium supplemented with 10% FCS, […] L-glutamine, 2 ng/ml insulin, 100 U/ml penicillin and 100 μg/ml streptomycin sulfate) to give a cell density of 5×10^5 cells/ml. The diluted cell suspension was dispersed into 6-well plates, 3 ml/well. The plates were incubated at 37° C., in a 5% CO2 incubator on a gyrotatory shaker (New Brunswick) at an initial rotation speed of 85 rpm for the first 24 hr and 77 rpm thereafter. The plates were rotated at this speed for the duration of the study (up to 45 days, but typically 2-10 days). 1.5 ml of old medium was replaced with 2.0 ml fresh medium for each well every other day. Media exchange was carried out over the duration of the study (up to 45 days, but typically 2-10 days). […]
LDH in the media was assayed using the method developed by Korzeniewski and Callewaert (Korzeniwski, C., and Callewaert, D. M. (1983). An enzyme-release assay for natural cytotoxicity. J Immun. Meth. 64, 313-320). […] The resultant absorbance at 490 mn was monitored for 15 min, at 10 sec intervals on a microplate reader (Multiscan RC, Labsystem).

[6] = tested on: rat liver spheroids; assay: Intoxification of liver spheroids: spheroid damage / functional change observed
Description: as §2, with “thereafter.” for “thereafter. The plates were rotated at this speed for the duration of the study (up to 45 days, but typically 2-10 days). 1.5 ml of old medium was replaced with 2.0 ml fresh medium for each well every other day. Media exchange was carried out over the duration of the study (up to 45 days, but typically 2-10 days).”

[7] = 0-40 mM GalN, trend over concentration

Q: `N[C@H]1C(O)O[C@H](CO)[C@H](O)[C@@H]1O` (stereo partly drawn) [GalN, D-Galactosamine] was tested. Which “total protein content of spheroids” value ([1]; 20 mM or lower GalN) did it give?
A: not affected; also recorded: did not decrease

Q: And the “total protein content of spheroids” value ([1]; 40 mM GalN, p<0.05)?
A: significantly decreased

Q: What about the albumin synthesis [2, 7] of the same molecule?
A: concentration-dependent decrease

Q: What about the albumin synthesis ([2]; 40 mM GalN, vs control, p<0.05) of the same molecule?
A: decrease was significant

Q: What about the urea synthesis ([3]; 0-40 mM GalN, 24 hr after exposure, trend over concentration) of the same molecule?
A: concentration-dependent increase

Q: And the “synthetic rates of urea” value ([3]; 10 mM or higher GalN, 24 hr, vs control, p<0.05)?
A: significantly higher

Q: And the glutathione content ([4]; 20 mM and lower GalN)?
A: did not decrease

Q: What about the glutathione content ([4]; 40 mM GalN, p<0.05) of the same molecule?
A: significantly decreased

Q: And the LDH leakage [5, 7]?
A: concentration-dependent increase

Q: What about the LDH leakage ([5]; 10 mM GalN, 24 hr, p<0.05) of the same molecule?
A: significantly increased

Q: And the LDH leakage ([5]; 20 and 40 mM GalN, 4 hours after exposure, vs control, p<0.05)?
A: significant increase

Q: What about the “functional change of liver spheroids” value ([6]; 20 mM GalN) of the same molecule?
A: caused a functional change

Q: What about the “spheroid damage / cell death” value ([6]; 40 mM GalN (highest concentration), 24 hr exposure) of the same molecule?
A: caused acute cell death

Source: US20040091460A1, “Preparation of spheroids” (priority 2000, published 2004)
